Reference: patent US8623429B2, “Stabilized anthocyanin compositions” (Omnica GmbH, priority 2007, dated 2014)
Blank lines part the entries; values can stand above or below the compound they belong to.

Assays:
Type in all cases: physicochemical
[1] = Example 9: stability of bilberry extract anthocyanosides, 4 hours at 37° C., pH 7.0, with/without L-cysteine
Method: Sample a) 60 mg bilberry extract [37% anthocyanosides] (0.048 mmol anthocyanosides expressed as cyanidin-3-O-glucoside) were added to a 100 ml flask with 60 ml sodium phosphate buffer (5% [w/w], pH=7.0), and stirred until dissolution was complete. A 1 ml sample was taken immediately and acidified with formic acid to pH=1.0 and analyzed by HPLC for the content of anthocyanosides (Fresh Sample). The remaining solution was kept for 4 hours at 37° C. (water bath) with stirring. Thereafter another sample (Blank sample), representing unprotected degradation, was taken and acidified.
Sample b) 20 mg L-cysteine […] were added to a 100 ml flask with 60 ml sodium phosphate buffer (5% [w/w], pH=7.0) and stirred until dissolution was complete. 60 mg bilberry extract [37% anthocyanosides] (0.048 mmol expressed as cyanidin-3-O-glucoside) were then added to the flask and stir to fully dissolve, then kept for 4 hours at 37° C. (water bath) with stirring.
After 4 hours, samples were taken and acidified immediately with formic acid to pH=1.0 and analyzed by HPLC for the content of anthocyanosides. Degradation is expressed as decrease in peak area of individual peaks (calculated as % left after 4 hours).
Samples were prepared as outlined above in the HPLC Analytical Method. Test stability samples were immediately acidified (to block degradation) and injected undiluted following the detailed description provided below.

[2] = Example 2: degradation over time of selected bilberry anthocyanosides at 37° C., pH 7.0, with/without GSH (HPLC); conditions: pH 7.0, 37° C.; for %-residual anthocyanosides (% left): 4.30 hours
Method: Sample a) 60 mg bilberry extract [37% anthocyanosides] (0.048 mmol expressed as cyanidin-3-O-glucoside) were added to a 100 ml, filled to volume with sodium phosphate buffer (5% [w/w], pH=7.0) and stirred until dissolution was complete. A 1 ml sample was immediately taken and acidified with formic acid to pH=1.0 and analyzed by HPLC for the content of anthocyanosides. The remaining solution was kept at 37° C. (water bath) with stirring and additional 1 ml samples (Blank Samples), representing unprotected degradation, were sampled every 15 minutes. The samples were analyzed for selected anthocyanosides by HPLC.
Sample b) 20 mg reduced L-glutathione (0.065 mmol) were added to a 100 ml flask with 60 ml sodium phosphate buffer (5% [w/w], pH=7.0) and stirred until dissolution was complete. 60 mg bilberry extract [37% anthocyanosides] (0.048 mmol expressed as cyanidin-3-O-glucoside) were added and the flask was filled to volume with sodium phosphate buffer (5% [w/w], pH=7.0) and kept at 37° C. (water bath) with stirring. Every 15 minutes, 1 ml samples were taken and analyzed for selected anthocyanosides by HPLC.
(§1) Samples were prepared as outlined below in HPLC Analytical Method. Test stability samples were immediately acidified (to block degradation) and injected undiluted following the detailed description provided below.
HPLC Analytical Method (Materials, Instruments and Methods): […]

[3] = Example 1: stability of bilberry extract anthocyanosides, 4 hours at 37° C., pH 7.0, with/without DHLA or GSH (HPLC)
Method: (0.048 mmol anthocyanosides expressed as cyanidin-3-O-glucoside) were added to a 100 ml flask and filled to volume with sodium phosphate buffer (5% [w/w], pH=7.0), and stirred until dissolution was complete. A 1 ml sample was taken immediately and acidified with formic acid to pH=1.0 and analyzed by HPLC for the content of anthocyanosides (Fresh Sample). The remaining solution was kept for 4 hours at 37° C. (water bath) with stirring. Thereafter another sample (Blank sample), representing unprotected degradation, was taken and acidified.
(0.048 mmol expressed as cyanidin-3-O-glucoside) were then added and the flask was filled to volume with sodium phosphate buffer (5% [w/w], pH=7.0) and kept for 4 hours at 37° C. (water bath) with stirring.
Quantitation: External standardization based on linear regression analysis. The response factors of all anthocyanosides separated is quantitified against cyanidin-3-O-glucoside.
Test solutions from incubation experiments (with/without cells and with/without stabilizing agents) were used for analysis after stabilization of anthocyanosides with formic acid. Samples were cleared by filtration prior to injection on to HPLC-system.

[4] = Example 6: stability of free anthocyanidins delphinidin and malvidin at 37° C., pH 7.0, with/without GSH (HPLC); conditions: pH 7.0, 37° C.
Method: (§2) Sample a) 5 mg delphinine chloride (0.015 mmol) was transferred into a 100 ml flask, dissolved in 1 ml methanol and filled to volume with sodium phosphate buffer (5% [w/w], pH=7.0). The sample was kept with stirring at 37° C. Samples were taken immediately after dissolution, after 15 minutes, 1, 2, and 3 hours of incubation. The samples were acidified with formic acid to pH=1.0 and analyzed by HPLC.
as §2, with “b)” for “a)”, “malvidin” for “delphinine”, “(0.014” for “(0.015”, “dissolution and at” for “dissolution, after 15 minutes,”
(§3) Sample c) 5 mg delphinidine chloride (0.015 mmol) and 10 mg GSH (0.032 mmol) were transferred into a 100 ml flask, dissolved in 1 ml methanol and filled to volume with sodium phosphate buffer (5% [w/w], pH=7.0). The sample was kept with stirring at 37° C. Samples were taken at 15 minutes after dissolution and after 1, 2 and 3 hours of incubation. The samples were acidified with formic acid to pH=1.0 and analyzed by HPLC.
as §3, with “d)” for “c)”, “malvidin” for “delphinidine”, “(0.014” for “(0.015”, “taken” for “taken at”
as §1

[5] = unprotected, pH 7.0, 37° C., 4 hours
[6] = 20 mg reduced L-glutathione, pH 7.0, 37° C., 4 hours
[7] = 30 mg dihydrolipoic acid, pH 7.0, 37° C., 4 hours

Peak Area, Fresh solution ([1]; bilberry extract 60 mg in buffer pH 7.0, fresh sample): 654.4
% left, L-cysteine 20 mg ([1]; pH 7.0, 37° C., 4 hours): 50.6%
Peak Area, L-cysteine 20 mg ([1]; pH 7.0, 37° C., 4 hours): 331.3
% left, Blank [1, 5]: 7.8%
Peak Area, Blank [1, 5]: 50.9
Peak Area ([2]; Blank Sample, 1:15 h): 354.36
Peak Area ([2]; Blank Sample, 4:15 h): 226.99
Peak Area ([2]; Blank Sample, 4:30 h): 135.48
Peak Area ([2]; Blank sample, 0:00 h): 699.51
Peak Area ([2]; Blank sample, 0:15 h): 547.09
Peak Area ([2]; Blank sample, 0:30 h): 603.54
Peak Area ([2]; Blank sample, 0:45 h): 451.09
Peak Area ([2]; Blank sample, 1:00 h): 467.23
Peak Area ([2]; Blank sample, 1:45 h): 401.11
Peak Area ([2]; Blank sample, 2:00 h): 356.25
Peak Area ([2]; Blank sample, 2:15 h): 320.33
Peak Area ([2]; Blank sample, 2:30 h): 262.70
Peak Area ([2]; Blank sample, 2:45 h): 264.07
Peak Area ([2]; Blank sample, 3:00 h): 288.65
Peak Area ([2]; Blank sample, 3:15 h): 289.95
Peak Area ([2]; Blank sample, 3:30 h): 237.41
Peak Area ([2]; Blank sample, 4:00 h): 243.90
%-residual anthocyanosides (% left) ([2]; Blank): 19%
Peak Area ([2]; GSH Protected Sample (20 mg), 0:30 h): 674.83
Peak Area ([2]; GSH Protected Sample (20 mg), 1:30 h): 618.45
Peak Area ([2]; GSH Protected Sample (20 mg), 2:30 h): 528.71
Peak Area ([2]; GSH Protected Sample (20 mg), 3:30 h): 553.82
Peak Area ([2]; GSH Protected Sample (20 mg), 4:30 h): 531.62
Peak Area ([2]; GSH Protected Sample (20 mg), 4:45 h): 478.52
Peak Area ([2]; GSH protected sample (20 mg), 0:00 h): 731.12
Peak Area ([2]; GSH protected sample (20 mg), 0:15 h): 739.50
Peak Area ([2]; GSH protected sample (20 mg), 0:45 h): 598.57
Peak Area ([2]; GSH protected sample (20 mg), 1:00 h): 652.53
Peak Area ([2]; GSH protected sample (20 mg), 1:15 h): 648.70
Peak Area ([2]; GSH protected sample (20 mg), 1:45 h): 609.47
Peak Area ([2]; GSH protected sample (20 mg), 2:00 h): 583.66
Peak Area ([2]; GSH protected sample (20 mg), 2:15 h): 592.13
Peak Area ([2]; GSH protected sample (20 mg), 2:45 h): 560.24
Peak Area ([2]; GSH protected sample (20 mg), 3:00 h): 562.10
Peak Area ([2]; GSH protected sample (20 mg), 3:15 h): 562.39
Peak Area ([2]; GSH protected sample (20 mg), 3:45 h): 495.67
Peak Area ([2]; GSH protected sample (20 mg), 4:00 h): 563.95
Peak Area ([2]; GSH protected sample (20 mg), 4:15 h): 540.10
%-residual anthocyanosides (% left) ([2]; GSH-protected): 65%
%-residual anthocyanosides (% left) ([2]; GSH-protected, listed as delphinidin-3-O-Galactose): 65%
% left, GSH (4 hours) [3, 6]: 50.6%
Peak Area, GSH (4 hours) [3, 6]: 331.3
% left, DHLA (4 hours) [3, 7]: 60.5%
Peak Area, DHLA (4 hours) [3, 7]: 395.8
Peak Area, Fresh (0 hours) ([3]; bilberry extract 60 mg/100 ml sodium phosphate buffer pH 7.0, fresh sample): 654.4
% left, Blank (4 hours) [3, 5]: 7.8%
Peak Area, Blank (4 hours) [3, 5]: 50.9
Compound: OC[C@H]1O[C@@H](Oc2cc3c(O)cc(O)cc3[o+]c2-c2cc(O)c(O)c(O)c2)[C@H](O)[C@@H](O)[C@H]1O [Dp-3O-Gal, Delphinidin 3-o-galactoside]

Compound: Oc1cc(O)c2cc(O)c(-c3cc(O)c(O)c(O)c3)[o+]c2c1 [Delphinidin]
Peak Area ([4]; Blank, 0 hours): 48.6
Peak Area ([4]; Blank, 0.25 hours): BLD
Peak Area ([4]; Blank, 1 hour): BLD
Peak Area ([4]; Blank, 2 hours): BLD
Peak Area ([4]; Blank, 3 hours): BLD
Peak Area ([4]; GSH 10 mg, 0.25 hours): BLD
Peak Area ([4]; GSH 10 mg, 1 hour): BLD
Peak Area ([4]; GSH 10 mg, 2 hours): BLD
Peak Area ([4]; GSH 10 mg, 3 hours): BLD

Compound: COc1cc(-c2[o+]c3cc(O)cc(O)c3cc2O)cc(OC)c1O.[Cl-] [Malvidin]
Peak Area ([4]; Blank, 0 hours): 1228
Peak Area ([4]; Blank, 1 hour): 661.6
Peak Area ([4]; Blank, 2 hours): 175.3
Peak Area ([4]; Blank, 3 hours): 56.4
Peak Area ([4]; GSH 10 mg, 1 hour): 530.1
Peak Area ([4]; GSH 10 mg, 2 hours): 263.5
Peak Area ([4]; GSH 10 mg, 3 hours): 5.6
